Laboratory results: ChEMBL document CHEMBL1127204, “Synthesis of 1,3-diamino-2-hydroxypropane derivatives as pseudosymmetric HIV protease inhibitors” (Bioorg Med Chem Lett, 1993)
Active and inactive are the calls of the source. No cut-off for these calls is given here.

biological target: Human immunodeficiency virus type 1 protease (Human immunodeficiency virus 1) (UniProt Q72874); assay: Tested in vitro for inhibition of HIV-1 protease at concentration of 10e-6 M; No activity

Row | inhibition | Compound
1 | inactive | CC(C)C(NC(=O)C1Cc2ccccc2CN1CC(O)CN1Cc2ccccc2CC1C(=O)NC(C(=O)NC(C)(C)C)C(C)C)C(=O)NC(C)(C)C (centres undefined)
2 | inactive | CC(C)C(NC(=O)CN(Cc1ccccc1)CC(O)CN(CC(=O)NC(C(=O)NC(C)(C)C)C(C)C)Cc1ccccc1)C(=O)NC(C)(C)C (centres undefined)
3 | inactive | CC(C)(C)NC(=O)C1Cc2ccccc2CN1CC(O)CN1Cc2ccccc2CC1C(=O)NC(C)(C)C (centres undefined)
4 | inactive | N[C@H](CCNC(=O)C1Cc2ccccc2CN1CC(O)CN1Cc2ccccc2CC1C(=O)NCC[C@H](N)C(=O)O)C(=O)O (some centres undefined)
